From patent US8119624B2, “Fused phenyl amido heterocyclic compounds” (Pfizer Inc., priority 2006, dated 2012) come the findings set out here.

SMILES strings stand for the structures.

This assay deals with T1, Full-length glucokinase (beta cell isoform) (Homo sapiens, UniProt P35557).
T1 construct: Full-length glucokinase (beta cell isoform) was His-tagged at N-terminus; His tag (N); made in house
T1 sequence (P35557 1-465): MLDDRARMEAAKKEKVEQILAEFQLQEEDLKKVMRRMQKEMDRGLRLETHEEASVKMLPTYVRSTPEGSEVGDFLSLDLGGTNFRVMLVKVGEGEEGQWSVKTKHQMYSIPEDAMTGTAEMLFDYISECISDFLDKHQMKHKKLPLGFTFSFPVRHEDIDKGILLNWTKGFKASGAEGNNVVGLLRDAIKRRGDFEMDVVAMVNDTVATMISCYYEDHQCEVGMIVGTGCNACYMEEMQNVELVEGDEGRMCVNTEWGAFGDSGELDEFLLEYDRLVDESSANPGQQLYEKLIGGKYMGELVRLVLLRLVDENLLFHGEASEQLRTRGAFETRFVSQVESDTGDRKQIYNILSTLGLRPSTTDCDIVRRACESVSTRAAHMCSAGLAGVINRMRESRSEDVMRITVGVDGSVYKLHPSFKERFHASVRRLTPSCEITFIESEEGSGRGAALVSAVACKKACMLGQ
As to the kind of experiment: Glucokinase biochemical assay (PK/LDH-coupled, NADH depletion at 340 nm): % activation, EC50, % max activation. Conditions: 5 mM glucose; for activation at 10 µM: read-out: % Activation at 10 uM; for EC50: GK activation, read-out: EC50; for Emax: read-out: % Max Activation. An outline of the steps: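 N-terminally His-tagged full-length human beta-cell glucokinase, room temperature, 5 mM glucose, 1 mM ATP, PK/LDH-coupled with 0.7 mM NADH, 1% DMSO final. Initial velocity from the 200–900 s slope of A340 decline. % activation = (Va/Vo−1)×100, measured across compound concentrations.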

[1] abbreviates: 10 uM compound, % Activation=(Va/Vo−1)×100.

As a reminder, the EC50 is the midpoint of the concentration-response curve. In the case of `CN(C)C(=O)c1ccc(Oc2cc(C(=O)Nc3cnn(C)n3)cc3c2CC(C)(C)O3)cc1F` [Example 142, 4-(4-Dimethylcarbamoyl-3-fluoro-phenoxy)-2,2-dimethyl-2,3-dihydro-benzofuran-6-carboxylic acid (2-methyl-2H-[1,2,3]triazol-4-yl)-amide], the EC50 is 52.8 nM. Also, the activation at 10 µM under setting [1] turned out to be 145%. Besides, the Emax (fitted maximum activation) was found to be 130%.

Take `Cc1ccc(C(=O)COc2cc(C(=O)Nc3ccn(C)n3)cc3c2CC(C)(C)O3)cn1` [Example 103, 2,2-Dimethyl-4-[2-(6-methyl-pyridin-3-yl)-2-oxo-ethoxy]-2,3-dihydro-benzofuran-6-carboxylic acid (1-methyl-1H-pyrazol-3-yl)-amide]: the EC50 came out at 4700 nM. The activation at 10 µM under setting [1] came out at 78.9%. Moreover, the Emax (fitted maximum activation) was 94%.

As for `CN1CCN(C(=O)c2ccc(Oc3cc(C(=O)Nc4ccn(C)n4)cc4c3CC(C)(C)O4)c(F)c2)CC1` [Example 42, 4-[2-Fluoro-4-(4-methyl-piperazine-1-carbonyl)-phenoxy]-2,2-dimethyl-2,3-dihydro-benzofuran-6-carboxylic acid(1-methyl-1H-pyrazol-3-yl)-amide], the EC50 is 2300 nM. Further, under setting [1], the activation at 10 µM stood at 128%. Also, where the note is “fitted maximum activation”, the Emax amounted to 139%.

On to `COCC1Cc2c(Oc3ccc(C(=O)N(C)C)c(F)c3)cc(C(=O)Nc3ccn(C)n3)cc2O1` (single isomer, unassigned; (+)) [Example 207, (+)-4-(4-Dimethylcarbamoyl-3-fluoro-phenoxy)-2-methoxymethyl-2,3-dihydro-benzofuran-6-carboxylic acid (1-methyl-1H-pyrazol-3-yl)-amide], for which the EC50 came to 950 nM. Under setting [1], the “% Activation at 10 uM” value came out at 127%. In addition, the “% Max Activation” value (fitted maximum activation) is 142%.

For `Cn1ccc(NC(=O)c2cc(Oc3ccc(C(=O)NCCF)c(F)c3)c3c(c2)OC(C)(C)C3)n1` [Example 75, 4-[3-Fluoro-4-(2-fluoro-ethylcarbamoyl)-phenoxy]-2,2-dimethyl-2,3-dihydro-benzofuran-6-carboxylic acid(1-methyl-1H-pyrazol-3-yl)-amide], the 50% effective concentration (EC50) amounted to 260 nM. For the same molecule, under setting [1], the activation at 10 µM was 193%. Moreover, the Emax (fitted maximum activation) was found to be 189%.

Regarding `Cc1ccc(NC(=O)c2cc(OC(C)C)cc3oc(Br)cc23)nc1` [Example 345, 2-Bromo-6-isopropoxy-N-(5-methylpyridin-2-yl)benzofuran-4-carboxamide], the half-maximal effective concentration (EC50) came out at 4000 nM. Also, under setting [1], the activation at 10 µM is 75.6%. Also, the Emax (fitted maximum activation) was 116%.

Consider `Cc1ccc(NC(=O)c2cc(OC(C)C)cc3oc(-c4ccccc4)cc23)nc1` [Example 347, 6-Isopropoxy-N-(5-methylpyridin-2-yl)-2-phenylbenzofuran-4-carboxamide], for which the half-maximal effective concentration (EC50) came to 160 nM. In addition, under setting [1], the activation at 10 µM is 113%. In addition, the Emax (fitted maximum activation) was 158%.

`Cc1cc2c(Oc3ccc(S(C)(=O)=O)cc3)cc(C(=O)Nc3ccc(C#N)cn3)cc2o1` [Example 261, N-(5-cyanopyridin-2-yl)-2-methyl-4-(4-(methylsulfonyl)-phenoxy)benzofuran-6-carboxamide]: the concentration for a half-maximal effect (EC50) turned out to be 7900 nM. Besides, the activation at 10 µM under setting [1] is 58.8%. The Emax (fitted maximum activation) was 81%.

In the case of `Cc1ccc(NC(=O)c2cc(Oc3ccc(C(=O)N(C)C)nc3)c3c(c2)OC(C)(C)C3)nc1` [Example 165, 5-[2,2-Dimethyl-6-(5-methyl-pyridin-2-ylcarbamoyl)-2,3-dihydro-benzofuran-4-yloxy]-pyridine-2-carboxylic acid dimethylamide], the EC50 worked out at 38 nM. In addition, under setting [1], the activation at 10 µM was found to be 76.8%. In addition, the Emax (fitted maximum activation) came to 57%.

`CNC(=O)c1ccc(Oc2cc(C(=O)Nc3ccn(C)n3)cc3c2CC(C)(C)O3)cc1F` [Example 69, 4-(3-Fluoro-4-methylcarbamoyl-phenoxy)-2,2-dimethyl-2,3-dihydro-benzofuran-6-carboxylic acid(1-methyl-1H-pyrazol-3-yl)-amide]: the EC50 turned out to be 370 nM. In addition, the activation at 10 µM under setting [1] stood at 122%. Besides, the Emax (fitted maximum activation) was found to be 129%.
